{"source": "patent US12290513B2", "about": "“Therapeutic methods and compositions for treating movement disorders” (Vima Therapeutics, Inc., priority 2023, dated 2025)", "key": {"[1]": {"test_system": "guinea pig ileum myenteric plexus-longitudinal muscle (MPLM) strips", "test": "EFS-induced contractions in guinea pig ileum MPLM strips"}, "tear production": {"test_system": "tear production", "test": "THP-induced dry eye in dogs: tear production", "format": "in vivo, Beagles", "details": "oral, 2 mpk alone"}, "CYP2A6": {"biological_target": "T1, CYP2A6 (Homo sapiens, UniProt P11509)", "T1 sequence (P11509 1-494)": "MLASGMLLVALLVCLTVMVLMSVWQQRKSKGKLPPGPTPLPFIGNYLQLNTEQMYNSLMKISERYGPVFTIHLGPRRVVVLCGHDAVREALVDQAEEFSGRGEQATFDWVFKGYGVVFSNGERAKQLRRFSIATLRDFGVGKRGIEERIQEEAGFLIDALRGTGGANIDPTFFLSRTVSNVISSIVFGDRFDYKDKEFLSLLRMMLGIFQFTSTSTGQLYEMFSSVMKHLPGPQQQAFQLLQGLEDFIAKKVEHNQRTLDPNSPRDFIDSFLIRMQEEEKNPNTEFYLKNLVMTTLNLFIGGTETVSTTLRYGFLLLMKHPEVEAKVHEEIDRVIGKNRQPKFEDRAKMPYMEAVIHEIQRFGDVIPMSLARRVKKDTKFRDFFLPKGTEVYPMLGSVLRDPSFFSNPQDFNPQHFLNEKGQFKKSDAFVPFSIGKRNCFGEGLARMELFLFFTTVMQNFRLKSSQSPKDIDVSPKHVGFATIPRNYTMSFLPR", "test": "Incubation with recombinant CYP2A6"}, "CYP2C8": {"biological_target": "T2, CYP2C8 (Homo sapiens, UniProt P10632)", "T2 sequence (P10632 1-490)": "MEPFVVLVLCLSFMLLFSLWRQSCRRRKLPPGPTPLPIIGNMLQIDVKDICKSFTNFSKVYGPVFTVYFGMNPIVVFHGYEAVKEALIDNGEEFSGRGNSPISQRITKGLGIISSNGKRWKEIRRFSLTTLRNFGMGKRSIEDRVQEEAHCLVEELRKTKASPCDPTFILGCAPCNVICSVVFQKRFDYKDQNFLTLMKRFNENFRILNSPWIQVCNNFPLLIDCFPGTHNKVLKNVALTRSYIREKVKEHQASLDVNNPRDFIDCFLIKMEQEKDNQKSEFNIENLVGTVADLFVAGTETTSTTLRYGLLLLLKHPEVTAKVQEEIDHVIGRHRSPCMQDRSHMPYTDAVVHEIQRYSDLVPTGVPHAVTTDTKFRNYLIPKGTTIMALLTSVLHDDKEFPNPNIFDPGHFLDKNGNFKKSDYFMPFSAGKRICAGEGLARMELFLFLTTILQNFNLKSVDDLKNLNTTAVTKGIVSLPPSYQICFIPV", "test": "Incubation with recombinant CYP2C8"}, "CYP2B6": {"biological_target": "T3, CYP2B6 (Homo sapiens, UniProt P20813)", "T3 sequence (P20813 1-491)": "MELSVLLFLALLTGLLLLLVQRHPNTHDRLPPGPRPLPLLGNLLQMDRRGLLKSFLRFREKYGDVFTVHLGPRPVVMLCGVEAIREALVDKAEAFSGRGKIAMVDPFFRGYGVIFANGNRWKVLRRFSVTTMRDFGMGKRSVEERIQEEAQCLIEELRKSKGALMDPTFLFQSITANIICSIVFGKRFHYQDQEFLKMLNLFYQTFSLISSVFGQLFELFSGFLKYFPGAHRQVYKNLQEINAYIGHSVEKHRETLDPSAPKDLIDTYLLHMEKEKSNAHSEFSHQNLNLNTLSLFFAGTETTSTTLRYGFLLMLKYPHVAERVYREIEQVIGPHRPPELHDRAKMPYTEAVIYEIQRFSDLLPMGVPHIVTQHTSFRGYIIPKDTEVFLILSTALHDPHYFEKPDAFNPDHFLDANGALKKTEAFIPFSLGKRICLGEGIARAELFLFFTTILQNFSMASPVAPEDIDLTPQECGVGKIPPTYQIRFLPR", "test": "Incubation with recombinant CYP2B6"}, "CYP3A4": {"biological_target": "CYP3A4 (Homo sapiens, UniProt P08684)", "sequence (P08684 whole entry)": "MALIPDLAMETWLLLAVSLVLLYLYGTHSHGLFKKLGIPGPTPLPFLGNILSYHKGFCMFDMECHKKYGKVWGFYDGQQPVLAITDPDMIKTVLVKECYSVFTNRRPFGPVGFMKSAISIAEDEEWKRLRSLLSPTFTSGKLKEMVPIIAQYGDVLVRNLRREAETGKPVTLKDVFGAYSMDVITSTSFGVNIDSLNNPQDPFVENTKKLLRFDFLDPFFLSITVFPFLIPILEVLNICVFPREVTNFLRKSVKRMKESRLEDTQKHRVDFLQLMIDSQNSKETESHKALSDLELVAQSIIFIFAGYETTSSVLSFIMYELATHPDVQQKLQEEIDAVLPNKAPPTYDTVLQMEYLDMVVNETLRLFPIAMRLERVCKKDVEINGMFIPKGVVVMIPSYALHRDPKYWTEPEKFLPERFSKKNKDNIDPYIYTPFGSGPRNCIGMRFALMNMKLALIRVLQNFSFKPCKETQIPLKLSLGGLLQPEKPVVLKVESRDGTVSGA", "test": "Incubation with recombinant CYP3A4"}, "CYP3A5": {"biological_target": "CYP3A5 (Homo sapiens, UniProt P20815)", "sequence (P20815 whole entry)": "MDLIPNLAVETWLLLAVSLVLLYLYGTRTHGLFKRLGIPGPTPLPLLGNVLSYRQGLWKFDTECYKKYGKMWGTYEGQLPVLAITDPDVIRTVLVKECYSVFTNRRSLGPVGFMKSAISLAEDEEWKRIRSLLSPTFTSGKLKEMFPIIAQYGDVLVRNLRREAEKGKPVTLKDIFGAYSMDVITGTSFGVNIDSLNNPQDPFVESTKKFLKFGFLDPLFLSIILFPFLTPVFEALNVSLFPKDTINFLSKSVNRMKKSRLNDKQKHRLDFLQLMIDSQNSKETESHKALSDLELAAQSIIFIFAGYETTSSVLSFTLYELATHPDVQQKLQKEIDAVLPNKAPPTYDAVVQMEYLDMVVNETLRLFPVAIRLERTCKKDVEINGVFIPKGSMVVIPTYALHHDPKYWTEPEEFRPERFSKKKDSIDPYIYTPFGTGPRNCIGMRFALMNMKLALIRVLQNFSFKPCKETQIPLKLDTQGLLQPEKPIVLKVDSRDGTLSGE", "test": "Incubation with recombinant CYP3A5"}, "CYP1A2": {"biological_target": "T4, CYP1A2 (Homo sapiens, UniProt P05177)", "T4 sequence (P05177 1-516)": "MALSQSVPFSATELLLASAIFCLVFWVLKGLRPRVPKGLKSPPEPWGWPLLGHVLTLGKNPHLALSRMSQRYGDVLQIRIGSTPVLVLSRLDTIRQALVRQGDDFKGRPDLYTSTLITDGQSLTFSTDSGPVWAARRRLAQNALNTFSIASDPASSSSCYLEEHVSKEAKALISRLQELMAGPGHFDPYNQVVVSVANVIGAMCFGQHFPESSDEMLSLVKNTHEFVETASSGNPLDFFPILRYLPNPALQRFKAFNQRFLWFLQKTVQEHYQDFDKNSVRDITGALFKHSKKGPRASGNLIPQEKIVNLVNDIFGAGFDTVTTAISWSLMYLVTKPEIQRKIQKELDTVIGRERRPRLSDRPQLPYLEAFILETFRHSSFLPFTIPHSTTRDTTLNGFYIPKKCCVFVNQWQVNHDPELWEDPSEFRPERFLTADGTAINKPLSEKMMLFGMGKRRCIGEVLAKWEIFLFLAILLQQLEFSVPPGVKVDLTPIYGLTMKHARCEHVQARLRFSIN", "test": "Incubation with recombinant CYP1A2"}, "[2]": {"description": "The resulting metabolites were analyzed by liquid chromatography-mass spectrometry, and metabolite peaks were detected and measured."}, "CYP2C19": {"biological_target": "CYP2C19 (Homo sapiens, UniProt P33261)", "sequence (P33261 whole entry)": "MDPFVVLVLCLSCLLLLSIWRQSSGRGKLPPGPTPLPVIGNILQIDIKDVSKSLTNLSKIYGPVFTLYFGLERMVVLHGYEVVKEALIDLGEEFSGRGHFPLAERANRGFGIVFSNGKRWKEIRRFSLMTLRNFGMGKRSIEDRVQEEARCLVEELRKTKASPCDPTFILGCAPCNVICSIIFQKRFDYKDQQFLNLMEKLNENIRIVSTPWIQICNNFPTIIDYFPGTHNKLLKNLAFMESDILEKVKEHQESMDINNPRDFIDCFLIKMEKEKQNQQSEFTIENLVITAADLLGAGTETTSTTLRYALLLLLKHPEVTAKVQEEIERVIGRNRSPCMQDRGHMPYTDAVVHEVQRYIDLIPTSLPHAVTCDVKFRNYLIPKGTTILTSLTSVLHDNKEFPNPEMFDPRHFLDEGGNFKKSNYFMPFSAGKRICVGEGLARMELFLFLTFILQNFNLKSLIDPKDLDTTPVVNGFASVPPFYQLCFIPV", "test": "Incubation with recombinant CYP2C19"}, "CYP2D6": {"biological_target": "CYP2D6 (Homo sapiens, UniProt P10635)", "sequence (P10635 whole entry)": "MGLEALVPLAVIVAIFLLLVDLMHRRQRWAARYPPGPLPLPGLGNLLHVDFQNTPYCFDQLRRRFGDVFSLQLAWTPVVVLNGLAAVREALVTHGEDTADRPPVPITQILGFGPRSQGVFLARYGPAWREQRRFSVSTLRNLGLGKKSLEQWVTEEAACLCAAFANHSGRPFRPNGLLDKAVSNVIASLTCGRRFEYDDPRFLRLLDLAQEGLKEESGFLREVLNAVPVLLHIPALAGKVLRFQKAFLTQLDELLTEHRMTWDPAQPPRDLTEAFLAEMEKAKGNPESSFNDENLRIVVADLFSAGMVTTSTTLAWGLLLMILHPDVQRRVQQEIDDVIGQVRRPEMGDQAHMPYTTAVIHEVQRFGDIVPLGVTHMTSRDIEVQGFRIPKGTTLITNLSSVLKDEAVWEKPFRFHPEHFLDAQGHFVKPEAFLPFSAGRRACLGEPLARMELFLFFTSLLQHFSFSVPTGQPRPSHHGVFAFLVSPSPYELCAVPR", "test": "Incubation with recombinant CYP2D6"}, "CYP2C9": {"biological_target": "CYP2C9 (Homo sapiens, UniProt P11712)", "sequence (P11712 whole entry)": "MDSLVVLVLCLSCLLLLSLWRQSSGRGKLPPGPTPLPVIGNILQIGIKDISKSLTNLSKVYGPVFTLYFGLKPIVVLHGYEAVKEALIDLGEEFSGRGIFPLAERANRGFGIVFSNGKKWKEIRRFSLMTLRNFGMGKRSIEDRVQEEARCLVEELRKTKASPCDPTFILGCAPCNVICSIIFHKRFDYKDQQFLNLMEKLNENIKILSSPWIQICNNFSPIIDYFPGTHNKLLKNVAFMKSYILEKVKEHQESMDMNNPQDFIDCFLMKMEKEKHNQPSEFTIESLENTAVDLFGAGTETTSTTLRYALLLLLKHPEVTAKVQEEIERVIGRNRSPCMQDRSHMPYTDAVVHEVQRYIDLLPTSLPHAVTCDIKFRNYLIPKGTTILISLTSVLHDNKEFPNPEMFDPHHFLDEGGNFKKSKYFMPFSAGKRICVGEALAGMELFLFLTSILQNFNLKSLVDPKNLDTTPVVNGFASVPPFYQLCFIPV", "test": "Incubation with recombinant CYP2C9"}, "[3]": {"test_system": "haloperidol-induced catalepsy", "test": "Haloperidol-induced catalepsy (bar test)", "format": "in vivo, Sprague Dawley rats", "details": "rats, haloperidol 1 mg/kg sc, Rac-THP 10, 20, 30 mg/kg, R-THP or S-THP 5, 10, 15 mg/kg ip", "description": "Animals: Adult male Sprague Dawley rats (230-235 g) from Envigo were used in this study. Upon receipt, rats were group housed in ventilated cages and acclimated for one week prior to testing.\nThe front paws of a rat were placed then on a horizontal metal bar raised 6″ above a Plexiglas platform. Each rat underwent 3 trials of 60 seconds each. The test ended when the animal's front paws return to the platform or after 60 seconds. Rats were tested at 30 and 60 minutes after treatment.\nData were analyzed by one-way analysis of variance (ANOVA) followed by Tukey's post-hoc comparisons, where appropriate. Data are represented as mean and standard error to the mean (SEM)."}, "CYP2E1": {"biological_target": "CYP2E1 (Homo sapiens, UniProt P05181)", "sequence (P05181 whole entry)": "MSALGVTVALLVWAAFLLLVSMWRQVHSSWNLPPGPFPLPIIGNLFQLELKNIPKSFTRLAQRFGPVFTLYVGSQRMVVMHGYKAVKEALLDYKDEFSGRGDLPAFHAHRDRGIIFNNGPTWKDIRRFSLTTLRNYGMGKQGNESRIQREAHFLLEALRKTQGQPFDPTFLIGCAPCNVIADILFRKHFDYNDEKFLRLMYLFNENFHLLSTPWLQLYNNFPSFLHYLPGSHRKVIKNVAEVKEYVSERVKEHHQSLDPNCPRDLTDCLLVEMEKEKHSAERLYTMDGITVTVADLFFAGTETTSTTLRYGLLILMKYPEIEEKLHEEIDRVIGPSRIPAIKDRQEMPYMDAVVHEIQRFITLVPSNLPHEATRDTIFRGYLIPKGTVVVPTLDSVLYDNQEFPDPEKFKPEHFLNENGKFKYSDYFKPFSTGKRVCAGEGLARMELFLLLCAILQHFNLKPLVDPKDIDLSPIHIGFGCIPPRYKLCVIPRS", "test": "Incubation with recombinant CYP2E1"}, "[4]": {"test": "Whole blood stability, human", "description": "(§1) Procedures for blood Stability. • A. 398 μL of blood from each species was added to an incubation plate, which was pre-warmed at 37C for 15 minutes. • B. After the pre-incubation, 2 μL of working solution (test compounds or control compounds) was spiked to 398 μL of blood to reach a final concentration of 1 μM for test compounds and 5 μM for control compounds. The final concentration of organic solvents is 0.5%. The assays were performed in duplicate. • C. The reaction samples were incubated at 37C. • D. Aliquots of 50 μL were taken from the reaction samples at 0, 15, 30, 60 and 120 minutes. The reaction was stopped by the addition of 50 μL ultrapure water and 400 μL cold acetonitrile. • E. All samples were vortexed for 10 minutes, followed by centrifugation at 3,220 g for 40 minutes to precipitate proteins. 100 μL of the supernatant was then transferred to a new plate. The supernatant was diluted with ultrapure water as needed for detection by LC-MS/MS. Sample Analysis\n(§2) Samples were analyzed by LC-MS/MS to measure the concentration of the test compounds.\n(§3) All calculations were carried out using Microsoft Excel and according to standard analysis methods that are known in the art."}, "[5]": {"test": "Whole blood stability, dog", "description": "as §1, §2, §3"}, "[6]": {"test": "Whole blood stability, rat", "details": "rat whole blood, 37C", "description": "as §1, §2, §3"}, "[7]": {"details": "cumulative concentration response curve, no pre-treatment"}}}
{"molecule": "CC(C[N+](C)(C)C)OC(N)=O", "note": "(racemic) [BTC, bethanechol]", "values": [{"measurement": "change over baseline", "setting": "[1]; BTC at 30 μM following pre-treatment with Rac-THP at 30 nM", "value": "up to 50%"}, {"measurement": "response of EFS-stimulated MPLM strips", "setting": "[1]; [7]", "value": "concentration-dependent contraction"}, {"measurement": "response of EFS-stimulated MPLM strips", "setting": "[1]; following pre-treatment with Rac-THP at 30 nM", "value": "concentration-dependent relaxation of the isolated MPLM strips back to baseline"}, {"measurement": "% Baseline tear production", "setting": "tear production; 1 hour post administration", "value": 107, "unit": "%"}, {"measurement": "% Baseline tear production", "setting": "tear production; 4 hours post administration", "value": 117, "unit": "%"}]}
{"molecule": "OC(CCN1CCCCC1)(c1ccccc1)C1CCCCC1", "note": "(racemic) [Rac-THP, racemic trihexyphenidyl]", "values": [{"measurement": "CLint", "setting": "CYP2A6", "value": 0.00, "unit": "µL/min/pmol"}, {"measurement": "t1/2", "setting": "CYP2A6; unit not given", "value": "∞"}, {"measurement": "CLint", "setting": "CYP2C8", "value": 0.00, "unit": "µL/min/pmol"}, {"measurement": "t1/2", "setting": "CYP2C8; unit not given", "value": "∞"}, {"measurement": "CLint", "setting": "CYP2B6", "value": 0.00, "unit": "µL/min/pmol"}, {"measurement": "t1/2", "setting": "CYP2B6; unit not given", "value": "∞"}, {"measurement": "Substrates of CYP3A4", "setting": "CYP3A4", "value": "Rac, R and S"}, {"measurement": "Substrates of CYP3A5", "setting": "CYP3A5", "value": "Rac, R and S"}, {"measurement": "response of EFS-stimulated MPLM strips", "setting": "[1]; [7]", "value": "concentration-dependent relaxation response"}, {"measurement": "Substrates of CYP1A2", "setting": "CYP1A2", "value": "S and Rac"}, {"measurement": "metabolites detected", "setting": "[2]", "value": "metabolite 18 when incubated with microsomes, but additional metabolites 13, 14, and 16 were also observed"}, {"measurement": "Substrates of CYP2C19", "setting": "CYP2C19", "value": "Rac, R and S"}, {"measurement": "Substrates of CYP2D6", "setting": "CYP2D6", "value": "Rac, R and S"}, {"measurement": "CLint", "setting": "CYP2C9", "value": 0.00, "unit": "µL/min/pmol"}, {"measurement": "t1/2", "setting": "CYP2C9; unit not given", "value": "∞"}, {"measurement": "time spent holding bar, haloperidol-induced catalepsy", "setting": "[3]; 30 minutes after injection", "value": "significantly attenuated haloperidol-induced catalepsy"}, {"measurement": "time spent holding bar, haloperidol-induced catalepsy", "setting": "[3]; 60 minutes after injection", "value": "significantly attenuated haloperidol-induced catalepsy"}, {"measurement": "CLint", "setting": "CYP2E1", "value": 0.00, "unit": "µL/min/pmol"}, {"measurement": "t1/2", "setting": "CYP2E1; unit not given", "value": "∞"}]}
{"molecule": "CC(C)[N+](C)(CCOC(=O)C1c2ccccc2Oc2ccccc21)C(C)C", "note": "[Propantheline]", "values": [{"measurement": "Remaining Percentages (%) 0 min", "setting": "[4]; human whole blood, 37C", "value": 100.00, "unit": "%"}, {"measurement": "Remaining Percentages (%) 15 min", "setting": "[4]; human whole blood, 37C", "value": 71.54, "unit": "%"}, {"measurement": "Remaining Percentages (%) 30 min", "setting": "[4]; human whole blood, 37C", "value": 57.19, "unit": "%"}, {"measurement": "Remaining Percentages (%) 60 min", "setting": "[4]; human whole blood, 37C", "value": 25.74, "unit": "%"}, {"measurement": "Remaining Percentages (%) 120 min", "setting": "[4]; human whole blood, 37C", "value": 6.31, "unit": "%"}, {"measurement": "half-life at 5 μM", "setting": "[4]; human, whole blood", "value": 31, "unit": "min"}, {"measurement": "Remaining Percentages (%) 0 min", "setting": "[5]; dog whole blood, 37C", "value": 100.00, "unit": "%"}, {"measurement": "Remaining Percentages (%) 15 min", "setting": "[5]; dog whole blood, 37C", "value": 91.17, "unit": "%"}, {"measurement": "Remaining Percentages (%) 30 min", "setting": "[5]; dog whole blood, 37C", "value": 90.30, "unit": "%"}, {"measurement": "Remaining Percentages (%) 60 min", "setting": "[5]; dog whole blood, 37C", "value": 85.38, "unit": "%"}, {"measurement": "Remaining Percentages (%) 120 min", "setting": "[5]; dog whole blood, 37C", "value": 62.08, "unit": "%"}, {"measurement": "half-life at 5 μM", "setting": "[5]; dog, whole blood", "value": 184, "unit": "min"}]}
{"molecule": "O=C(CCCN1CCC(O)(c2ccc(Cl)cc2)CC1)c1ccc(F)cc1", "note": "[haloperidol, Haloperidol]", "values": [{"measurement": "time spent holding bar, haloperidol-induced catalepsy", "setting": "[3]; 30 minutes after injection", "value": "significantly increased the time the rats spend holding the bar"}, {"measurement": "time spent holding bar, haloperidol-induced catalepsy", "setting": "[3]; 60 minutes after injection", "value": "significantly increased the time the rats spend holding the bar"}]}
{"molecule": "Mevinolin", "values": [{"measurement": "Remaining Percentages (%) 0 min", "setting": "[6]", "value": 100.00, "unit": "%"}, {"measurement": "Remaining Percentages (%) 15 min", "setting": "[6]", "value": 9.32, "unit": "%"}, {"measurement": "Remaining Percentages (%) 30 min", "setting": "[6]", "value": 1.68, "unit": "%"}, {"measurement": "Remaining Percentages (%) 60 min", "setting": "[6]", "value": 2.21, "unit": "%"}, {"measurement": "Remaining Percentages (%) 120 min", "setting": "[6]", "value": 2.47, "unit": "%"}, {"measurement": "t1/2", "setting": "[6]", "value": 4.38, "unit": "min"}]}
